Data on two compounds can be found in patent US10633418B2, “Cross-linked peptides containing non-peptide cross-linked structure, method for synthesizing cross-linked peptides, and novel organic compound used in method” (JITSUBO Co., Ltd., priority 2011, dated 2020).

Numbered stars: 1 amine (or outer) side, 2 acyl side, 3 side chain; on linkers, the order of the positions; unused ones are H or OH. Bridge positions count the residues as written; N and C are the ends. Square brackets hold non-standard residues; d marks the D form. Peptide text beside a SMILES is read from it. Nle(6-ylidene) = O=C([C@H](CCCC=[*:3])N[*:1])[*:2]

In one series the test system is carboxy peptidase. The experiment in a line: Decomposition by carboxy peptidase (resistance to peptidase). In kind it is in vitro ADME. The settings on record: carboxy peptidase (isolated enzyme, SIGMA); enzyme solution 1 U/ml in PBS, peptide 0.2 mg/ml, 37° C., HPLC; time at which half of the peptide was decomposed; read-out: half period by carboxy peptidase (t1/2) (converted). The method, then: (§1) Resistance to a peptidase of a peptide of the present invention was investigated using a carboxy peptidase and chymotrypsin. Resistance to a peptidase was measured as described below.
(Decomposition by Carboxy Peptidase)
A carboxy peptidase purchased from SIGMA was treated with PBS to prepare an enzyme solution of 1 U/ml, which was then kept warm at 37° C. in a water bath. Then, a peptide solution having a concentration adjusted to 5 mg/ml with DMSO: pure water=1:1 mixed solvent was treated with PBS(−) to obtain a concentration of 1 mg/ml, and the enzyme solution and the peptide solution were mixed at 4:1 so as to give a peptide final concentration of 0.2 mg/ml. Thereafter, these were reacted quickly at 37° C. With time, the reaction solution was sampled each in an amount of 0.1 ml, and a reaction stopping solution (25% TFA in acetonitrile, 20 μL) was added to stop the reaction. Samples were analyzed by HPLC, and decomposition of a peptide by the peptidase was measured. […] Time at which half of the peptide added was decomposed was measured.

A further series deals with T1, chymotrypsin (Bos taurus, UniProt P00766).
T1 construct: purchased SIGMA
The experiment in a line: Decomposition by chymotrypsin (resistance to peptidase). The class given is in vitro ADME. The note with it: chymotrypsin (isolated enzyme, SIGMA), pH 8; enzyme solution 4 U/ml in 0.1M Tris-HCl (pH8.0), peptide 0.2 mg/ml, 37° C., HPLC; read-out: half period by chymotrypsin (t1/2). Here is the method: as §1
(Decomposition by Chymotrypsin)
Chymotrypsin purchased from SIGMA was treated with 0.1M Tris-HCl (pH8.0) to prepare an enzyme solution of 4 U/ml, which was then kept warm at 37° C. in a water bath. Then, a peptide solution treated with DMSO: pure water=1:1 to obtain a concentration of 5 mg/ml was treated with 0.1M Tris-HCl (pH8.0) to give a concentration of 1 mg/ml, and the enzyme solution and the peptide solution were mixed at 4:1 so as to give a peptide final concentration of 0.2 mg/ml. Thereafter, these were reacted quickly at 37° C. With time, the reaction solution was sampled each in an amount of 0.1 ml, and a reaction stopping solution (25% TFA in acetonitrile, 20 μL) was added to stop the reaction. Samples were analyzed by HPLC, and decomposition of a peptide by chymotrypsin was measured. Sampling was conducted at 0, 0.5 minutes, 1 minute and 2 minutes, and when decomposition of 50% or more was not obtained at 2 minutes, sampling was conducted further at 0.5 hours, 1 hour, 3 hours, and time at which half of the peptide added was decomposed was measured.

As for `CC(=O)N1CCCC[C@@H](C(=O)N[C@@H](Cc2ccc(O)cc2)C(=O)O)NC(=O)[C@H](CC(C)C)NC(=O)[C@H](Cc2ccc(O)cc2)NC(=O)[C@H](CCC(N)=O)NC(=O)[C@H](CO)NC(=O)[C@H](Cc2c[nH]c3ccccc23)NC(=O)CN(C(=O)[C@@H](N)Cc2ccc(O)cc2)CCCC1` [Bdev-19], the results for the half-life at 0.2 mg/ml in the series with carboxy peptidase and at chymotrypsin were 0.0495 h and 0.97 min, respectively.
Consider `CC(C)C[C@@H]1NC(=O)[C@H](Cc2ccc(O)cc2)NC(=O)[C@H](CCC(N)=O)NC(=O)[C@H](CO)NC(=O)[C@H](Cc2c[nH]c3ccccc23)NC(=O)[C@@H](NC(=O)[C@@H](N)Cc2ccc(O)cc2)CCC/C=C\CCC[C@@H](C(=O)N[C@@H](Cc2ccc(O)cc2)C(=O)O)NC1=O` [Comp. 3] (H-Y[Nle(6-ylidene)]WSQYL[Nle(6-ylidene)]Y-OH; staple (Z) 2-8), for which the results for the half-life at 0.2 mg/ml in the series on carboxy peptidase and at chymotrypsin were 79 h and 2.07 min, respectively.
